Reference: US20060205037A1, “Modified transferrin fusion proteins” (priority 2003, published 2006)

Key:
[1] = blood; cited from earlier work
[2] = tested on: db/db mice; assay: food intake and post-prandial blood glucose, db/db mice; format: in vivo
Description: (§1) Mice (N=5 per group) were conditioned to eat once daily (9-10 am) for five days. […] Food intake and blood glucose levels were measured 2, 4, 7 and 24 h after peptide administration.

[3] = c-Fos activation in brain after IP injection; format: in vivo, mice; conditions: IP 1 nmol/kg
Description: (§2) Briefly, mice that received IP injections were anesthetized with isoflurane 2 h later and the mice that received ICV injections were anesthetized 1.5 and 24 h later. Intracardiac perfusion with ice-cold 4% paraformaldehyde was immediately carried out. Brains were removed immediately at the end of perfusion, kept in ice-cold 4% parafor maldehyde for 72 h, and then transferred to a solution containing 4% paraformaldehyde and 25% sucrose until they floated. Each brain as cut into 30 μm sections using a sliding microtome with a freezing stage. Brain sections from each animal were placed in a 12-well plate and then processed for immunocytochemistry. The free-floating sections from each animal were first incubated in 0.3% H2O2 for 30 min and then washed 3 times in PBS for 5 min/rinse. Thereafter the sections were incubated in blocking serum (normal goat serum/PBS/0.1% Triton) for 45 min at room temperature. The sections were stained for c-Fos with an antibody directed against the amino acid residues 4-17 in rabbit anti-human c-Fos (Calbiochem, 1:30,000) for 48 h at 4° C. The sections were then washed 6 times with PBS/0.1% Triton before incubation for 1.5 h at room temperature with biotinylated goat anti-rabbit IgG (1:600) in blocking serum (Vector Laboratories). Thereafter the sections were visualized with DAB (Vectastain ABC kit) and developed until the color reached the required intensity in the control sections. The reaction was stopped by immersion of the slides in distilled water. After the staining was completed, sections were mounted on superfrost slides (Fisher Scientific), air-dried for 1-2 days and coverslipped with Permount. Sections were examined using light microscopy to identify c-Fos-positive cells.

[4] = tested on: c-Fos; assay: c-Fos activation in brain after IP injection; format: in vivo, mice
Description: as §2

[5] = tested on: RIN 1046-38 cells; assay: insulin secretion in RIN 1046-38 cells; format: cell-based; conditions: rat insulinoma cells, concentration-dependent
Description: Rat insulinoma cell line, RIN1046-38 cells, was obtained from Dr. Samuel A. Clark and cultured with 5% CO2 at 37° C. in M199 medium (Cellgro) as previously described (Wang et al., 2001, Endocrinology, 142: 1820-1827). […] Exendin-9-39 (1 μmol/l: Bachem), an inhibitor of the GLP-1R. was also added overnight to one set of experiments. The supernatant was then collected and saved at −80° C. for determination of insulin content by ELISA (Crystal Chems). Cells were lysed and the protein content was quantified using the Bradford method.

[6] = tested on: isolated rat islets; assay: insulin secretion in isolated rat islets; format: cell-based; conditions: concentration-dependent
Description: Islets from Sprague-Dawley rats were isolated as we previously described, with some modification (Wang et al., 1997, J. Clin. Invest. 99: 2883-2889). Briefly, pancreata were digested by Collagenase Type XI (Sigma) and islets separated through a Ficoll-Paque gradient (Amersham Biosciences). The isolated islets were washed several times using Hanks Balanced Salts Solution (Biosource) containing 0.2% bovine serum albumin (BSA, Sigma), hand-picked and cultured overnight with 5% CO2 at 37° C. in M199 medium supplemented with 5 mM glucose. Rat islets were then treated similarly to (30-40 per well) to RIN cells as described above.

[7] = GLP-1-Tf in serum of cynomolgus monkeys (Example 4); format: in vivo, cynomolgus monkeys (Macaca fascicularis); conditions: cAMP in CHO/GLP-1R
[8] = tested on: non-diabetic mice; assay: IPGTT in non-diabetic mice after IP administration; format: in vivo; conditions: IP 1 and 10 mg/kg
Description: Intraperitoneal (IP) glucose tolerance testing (IPGTT) (0.5 g/kg body weight) was carried out after an overnight fast in non-diabetic mice. Tf and GLP-1-Tf were administered IP 30 min before the glucose injection. Blood glucose levels (Glucometer Elite, Bayer) were measured at 0, and 30 and 60 min and plasma insulin levels at 0 and 30 min after the IPGTT.

[9] = tested on: non-diabetic mice; assay: blood glucose after SC administration, ad libitum fed non-diabetic mice; format: in vivo
[10] = tested on: diabetic db/db mice; assay: overnight fast and IPGTT in diabetic mice after SC administration; format: in vivo
Description: A group of diabetic mice were given Tf or GLP-1-Tf via SC administration at 9 pm, fasted overnight and an IPGTT performed the next morning. The fasted Tf-treated animals had lower fasting blood glucose than ad libitum fed animals (238±39 versus 358±23 mg/dl; compare 0 time/fasted animals of FIG. 10c with 0 time/fed animals of FIG. 10a), and additionally, the animals given 1 or […] had lower fasting blood glucose (132±27 mg/dl) than those given Tf alone.

[11] = tested on: non-diabetic mice; assay: food intake and post-prandial blood glucose, non-diabetic mice; format: in vivo
Description: as §1

[12] = tested on: db/db mice; assay: β-cell proliferation (BrdU) and β-cell mass in db/db mice; format: in vivo; conditions: for increase in total β-cell mass: 10 mg/kg
Description: db/db mice, 6 per time point, received one IP injection of Tf (10 mg/kg) or GLP-1-Tf (10 mg/kg) and were sacrificed 1, 2 and 3 days later for measurement of β-cell proliferation and 3, 5, 8 and 10 days later for measurement of islet mass. Sixty mg/kg 5-bromo-2-deoxyuridine (BrdU, Sigma) was injected IP 6 hours before sacrifice. BrdU is a thymidine analog that is incorporated during S-phase of cell mitosis. Pancreata were removed, fixed overnight in 4% buffered formalin, processed for embedding in paraffin and histological sections (4 μm) mounted on poly-1-lysine-coated glass slides. BrdU was detected with a BrdU antibody (Sigma, 1:500 and also confirmed with Zymed antibody, 1:250) and BrdU staining kit (Zymed Laboratories Inc). Five to six hundred islets from each condition were then visualized and the number of islets that contained BrdU+ cells as well as the percent BrdU+ nuclei per total number of islet cells was quantified. For insulin staining and determination of β-cell mass histological sections were treated with a guinea-pig insulin antibody (Linco). Antibody binding was visualized with 3,3-diaminobenzidine (DAB) and sections counterstained with hematoxylin (Vectastain ABC kit, Vector Laboratories, using goat anti-guinea pig IgG). The sections were examined using a video camera connected to a computer with imaging software. Sectioned tissue images were acquired through a 2.5× objective of a phase contrast light microscope (Carl Zeiss) and digitized by means of a Sony Power HAD digital camera (an average of 20-30 images per section). The total pancreatic area and β-cell positive area for every image were quantified using MetaMorph 4.6.3 software (Universal Imaging Inc., West Chester).

[13] = tested on: c-Fos; assay: c-Fos activation in brain after ICV injection; format: in vivo, mice
Description: Briefly, mice that received IP injections were anesthetized with isoflurane 2 h later and the mice that received ICV injections were anesthetized 1.5 and 24 h later. Intracardiac perfusion with ice-cold 4% paraformaldehyde was immediately carried out. Brains were removed immediately at the end of perfusion, kept in ice-cold 4% parafor maldehyde for 72 h, and then transferred to a solution containing 4% paraformaldehyde and 25% sucrose until they floated. Each brain as cut into 30 μm sections using a sliding microtome with a freezing stage. Brain sections from each animal were placed in a 12-well plate and then processed for immunocytochemistry. The free-floating sections from each animal were first incubated in 0.3% H2O2 for 30 min and then washed 3 times in PBS for 5 min/rinse. Thereafter the sections were incubated in blocking serum (normal goat serum/PBS/0.1% Triton) for 45 min at room temperature. The sections were stained for c-Fos with an antibody directed against the amino acid residues 4-17 in rabbit anti-human c-Fos (Calbiochem, 1:30,000) for 48 h at 4° C. […]
In another series of experiments, Tf and GLP-1-Tf were administered intracerebrovenitricular (ICV) and c-Fos activation assessed 1.5 and 24 hours later.

[14] = tested on: diabetic db/db mice
Description: Male diabetic db/db mice (C57BLKS/J-Lepr^db/Lepr^db) lacking a functioning leptin receptor and their non-diabetic heterozygous littermates were purchased at 4 weeks of age from Jackson Laboratories (Bar Harbor). They were housed, two per cage and fed ad libitum for at least five days before any testing. The same mice were caged together for the duration of the studies.
Plasma insulin levels were measured at 1 and 4 hours.

[15] = compared to hTf-treated animals
[16] = 10 mg/kg, 2 h after administration

## Carbohydrate deficient transferrin: transferrin form elevated in the blood of alcoholic individuals
[1]
  half life: 14 to 17 days

## exendin-4 [reference compound]
[2]; 1 nmol/kg IP
  food intake in the remaining 17 h: caused a decrease in food intake
  time for which essentially all measurable food consumption was prevented: 7 h
[3]
  AP c-Fos response compared to GLP-1-Tf: much more robust
[4]; IP 1 nmol/kg
  brain areas with c-Fos activation: activated similar areas to GLP-1-Tf in all injected animals

## glycosylated transferrin: glycosylated serum transferrin
[1]
  half life: 7 to 10 days

## pREX0585: nL GLP-1 (7-37; A8G, K34A) (PEAPTD)2 mTf; mTf lacking N-glycosylation at sites 413 and 611
[5]
  insulin secretion: stimulate insulin secretion
[6]
  insulin secretion: stimulate insulin secretion
[7]
  activity of GLP-1-Tf in serum from the injected monkeys on CHO/GLP-1R: biologically active
[8]; 30 min before glucose
  insulin secretion: enhanced insulin secretion
[8]; IPGTT
  peak blood glucose: decreased
[9]
  time for blood glucose to rise to pre-administration levels: ≤ 24 h
[9]; ad libitum fed
  blood glucose concentration and insulin secretion: dose-dependently reduced blood glucose concentration and increased insulin secretion
[9]; higher dose 10 mg/kg
  persistence of low blood glucose: up to 36 hours
[9]; within 3 hours of administration
  blood glucose level: 70 mg/dL
[10]; SC at 9 pm, fasted overnight, GLP-1-Tf 1 or 10 mg
  fasting blood glucose: 132 ± 27 mg/dL
[10]; [15]
  glucose levels after the IPGTT: lower glucose levels
  plasma insulin levels after the IPGTT: higher plasma insulin levels
[11]; 0.1, 1 and 10 mg/kg, compared to Tf only
  post-prandial blood glucose levels: lower
[11]; IP 1 mg/kg
  time for which food intake was decreased by approximately half: 2 h
[11]; IP 10 mg/kg
  time for which food intake was decreased by approximately half: up to 7 h
[2]; 0.1, 1 and 10 mg/kg, compared to Tf treatment
  post-prandial blood glucose levels: lowered post-prandial blood glucose levels
[2]; IP 1 and 10 mg/kg
  time for which food intake was decreased by approximately half: 2 h
[12]; 10 mg/kg IP, compared to Tf
  number of BrdU+ nuclei in islets 24 hours after injection: clear increase in the number of BrdU+ nuclei
[12]; 10 mg/kg IP, third day
  islets with 1 or more BRDU+ nuclei: all islets
[12]; 10 mg/kg IP, third day, vs Tf, p<0.01
  increase in BRDU+ nuclei: 4.7 fold
[12]; 3 days, compared to Tf
  increase in total β-cell mass: 1.7 fold
[12]; 5 days, compared to Tf
  increase in total β-cell mass: 2.2 fold
[12]; 8 days, compared to Tf
  increase in total β-cell mass: 4.1 fold
[12]; 10 days, compared to Tf
  increase in total β-cell mass: 4.3 fold
[4]; 1 mg/kg
  c-Fos activation, AP: 0/6
  c-Fos activation, NTS: 6/6
  c-Fos activation, PVH: 6/6
[4]; [16]
  c-Fos activation, area postrema (AP): 4/6
  c-Fos activation, nuclei of the solitary tract (NTS): 6/6
  c-Fos activation, paraventricular nuclei of the hypothalamus (PVH): 6/6
[13]; 1.5 h
  c-Fos activation ninety minutes after ICV injection: c-Fos activation had occurred in PVH and NTS but not AP
[13]; 24 h
  c-Fos activation 24 h after ICV injection: not present in any of the three brain regions
[14]; SC 0.1 mg/kg
  plasma insulin levels at 1 hour: increased plasma insulin levels
[14]; SC 1 and 10 mg/kg
  beginning of blood glucose effect after injection: 1 h
  duration of increased plasma insulin levels: ≥ 4 h
[14]; SC both 1 and 10 mg/kg, ad libitum, from 358±23
  blood glucose: 115 ± 18 mg/dL
[14]; SC highest dose
  duration of effect on blood glucose: at least 12 hours
[14]; SC low dose 0.1 mg/kg
  duration of blood glucose lowering: 4 h
